Experimental data published in the NIST ThermoML archive (doi:10.1021/acs.jced.7b00221).

Test: xn = mol fraction of the nth substance listed
Settings: 100 kPa, Liquid; for viscosity: Cone and plate viscometry; for mass density: Vibrating tube method

CCCCCCCC[P+](CC)(CC)CC.O=[N+]([O-])c1cn[n-]c1 [triethyloctylphosphonium 4-nitropyrazolide] + CCCCCC[n+]1ccn(C)c1.O=S(=O)([N-]S(=O)(=O)C(F)(F)F)C(F)(F)F
Settings | mass density [kg/m3] | viscosity [mPa·s]
278.15 K, x1 = 0.126 | – | 267
278.15 K, x1 = 0.25 | – | 358
278.15 K, x1 = 0.499 | – | 680
278.15 K, x1 = 0.75 | – | 1046
278.15 K, x1 = 0.898 | – | 1242
283.15 K, x1 = 0.126 | 1340 | 191
283.15 K, x1 = 0.25 | 1296.5 | 251
283.15 K, x1 = 0.499 | 1209.6 | 456
283.15 K, x1 = 0.75 | 1124.3 | 682
283.15 K, x1 = 0.898 | 1074.4 | 804
283.15 K, x1 = 1 | 1040.7 | –
288.15 K, x1 = 0.126 | 1335.5 | 140
288.15 K, x1 = 0.25 | 1292.3 | 180
288.15 K, x1 = 0.499 | 1205.8 | 314
288.15 K, x1 = 0.75 | 1120.9 | 457
288.15 K, x1 = 0.898 | 1071.2 | 535
288.15 K, x1 = 1 | 1037.7 | –
293.15 K, x1 = 0.126 | 1331.1 | 106
293.15 K, x1 = 0.25 | 1288.2 | 133
293.15 K, x1 = 0.499 | 1201.9 | 223
293.15 K, x1 = 0.75 | 1117.5 | 317
293.15 K, x1 = 0.898 | 1068 | 369
293.15 K, x1 = 1 | 1034.6 | –
295.15 K, x1 = 0.126 | 1329.4 | –
295.15 K, x1 = 0.25 | 1286.5 | –
295.15 K, x1 = 0.499 | 1200.4 | –
295.15 K, x1 = 0.75 | 1116.1 | –
295.15 K, x1 = 0.898 | 1066.8 | –
295.15 K, x1 = 1 | 1033.4 | –
298.15 K, x1 = 0.126 | 1326.7 | 82
298.15 K, x1 = 0.25 | 1284.1 | 102
298.15 K, x1 = 0.499 | 1198.2 | 164
298.15 K, x1 = 0.75 | 1114.1 | 227
298.15 K, x1 = 0.898 | 1064.8 | 263
298.15 K, x1 = 1 | 1031.5 | –
303.15 K, x1 = 0.126 | 1322.4 | 66
303.15 K, x1 = 0.25 | 1280 | 79
303.15 K, x1 = 0.499 | 1194.5 | 124
303.15 K, x1 = 0.75 | 1110.7 | 168
303.15 K, x1 = 0.898 | 1061.7 | 192
303.15 K, x1 = 1 | 1028.5 | –
308.15 K, x1 = 0.126 | 1318.1 | 53
308.15 K, x1 = 0.25 | 1275.9 | 63
308.15 K, x1 = 0.499 | 1190.9 | 96
308.15 K, x1 = 0.75 | 1107.5 | 127
308.15 K, x1 = 0.898 | 1058.6 | 145
308.15 K, x1 = 1 | 1025.5 | –
313.15 K, x1 = 0.126 | 1313.8 | –
313.15 K, x1 = 0.25 | 1271.8 | 52
313.15 K, x1 = 0.499 | 1187.2 | 73
313.15 K, x1 = 0.75 | 1104.2 | 99
313.15 K, x1 = 0.898 | 1055.5 | 110
313.15 K, x1 = 1 | 1022.6 | –
318.15 K, x1 = 0.126 | 1309.6 | –
318.15 K, x1 = 0.25 | 1267.7 | –
318.15 K, x1 = 0.499 | 1183.5 | 59
318.15 K, x1 = 0.75 | 1100.9 | 77
318.15 K, x1 = 0.898 | 1052.5 | 83
318.15 K, x1 = 1 | 1019.6 | –
323.15 K, x1 = 0.126 | 1305.4 | –
323.15 K, x1 = 0.25 | 1263.7 | –
323.15 K, x1 = 0.499 | 1179.9 | –
323.15 K, x1 = 0.75 | 1097.6 | 62
323.15 K, x1 = 0.898 | 1049.4 | 67
323.15 K, x1 = 1 | 1016.7 | –
328.15 K, x1 = 0.126 | 1301.2 | –
328.15 K, x1 = 0.25 | 1259.6 | –
328.15 K, x1 = 0.499 | 1176.2 | –
328.15 K, x1 = 0.75 | 1094.3 | –
328.15 K, x1 = 0.898 | 1046.3 | –
328.15 K, x1 = 1 | 1013.8 | –
333.15 K, x1 = 0.126 | 1297 | –
333.15 K, x1 = 0.25 | 1255.5 | –
333.15 K, x1 = 0.499 | 1172.6 | –
333.15 K, x1 = 0.75 | 1091.1 | –
333.15 K, x1 = 0.898 | 1043.3 | –
333.15 K, x1 = 1 | 1010.8 | –
338.15 K, x1 = 0.126 | 1292.8 | –
338.15 K, x1 = 0.25 | 1251.5 | –
338.15 K, x1 = 0.499 | 1169 | –
338.15 K, x1 = 0.75 | 1087.8 | –
338.15 K, x1 = 0.898 | 1040.2 | –
338.15 K, x1 = 1 | 1007.9 | –
343.15 K, x1 = 0.126 | 1288.7 | –
343.15 K, x1 = 0.25 | 1247.5 | –
343.15 K, x1 = 0.499 | 1165.3 | –
343.15 K, x1 = 0.75 | 1084.6 | –
343.15 K, x1 = 0.898 | 1037.2 | –
343.15 K, x1 = 1 | 1005 | –
348.15 K, x1 = 0.126 | 1284.5 | –
348.15 K, x1 = 0.25 | 1243.5 | –
348.15 K, x1 = 0.499 | 1161.7 | –
348.15 K, x1 = 0.75 | 1081.3 | –
348.15 K, x1 = 0.898 | 1034.1 | –
348.15 K, x1 = 1 | 1002.1 | –
353.15 K, x1 = 0.126 | 1280.3 | –
353.15 K, x1 = 0.25 | 1239.5 | –
353.15 K, x1 = 0.499 | 1158.1 | –
353.15 K, x1 = 0.75 | 1078.1 | –
353.15 K, x1 = 0.898 | 1031.1 | –
353.15 K, x1 = 1 | 999.2 | –
